Measured values as given in US20260234116A1, “CYTOTOXIC EPOXYKETONE COMPOUNDS, PRECURSORS, COMPOSITIONS, AND METHODS OF USE” (Memorial Sloan-Kettering Cancer Center, priority 2023, published 2026).

Experiments:
[1] = Stability of β-ketoacid substrates (decarboxylation, 1H-NMR or SPE-MS/MS); assay type: physicochemical
Experimental: To assess rates of decarboxylation under conditions relevant to storage, biochemical assays, and cellular assays, we investigated the stability of eponemycin-based β-ketoacids 11a and 11c under a variety of conditions as shown in below Table C.
For samples stored neat, β-ketoacid 11 (lyophilized powder) was aliquoted into 1.5-2 mg samples in glass vials and placed under Ar. Samples were stored on the bench top (20-25° C.), in at 4° C. refrigerator or in a −20° C. freezer. At each time point, an entire aliquot was dissolved in CD3OD (600 μL) analyzed by ^1H-NMR for decarboxylation to the corresponding isopropyl ketone byproduct 22. The degree of decarboxylation was determined by comparing integrations of two singlet peaks at 1.40 and 1.33 ppm, arising from the α,α-dimethyl groups in the β-ketoacid 11, to two doublet peaks at 1.09 and 1.06 ppm, arising from the isopropyl methyl groups in the decarboxylation product 22. A septuplet corresponding to the methine proton of the isopropyl group was also observed at 2.91 ppm.
For samples stored in PBS, aliquots of β-ketoacid 11 were dissolved in deuterated PBS (600 μL) and incubated in a 37° C. shaking incubator. At each time point, one aliquot was removed and analyzed by ^1H-NMR as above. NMR changes observed in deuterated PBS were similar to those observed in CD3OD above.
For samples stored in RPMI, β-ketoacid 11 (lyophilized powder) was dissolved in EtOH to a working stock concentration of 20 mM. The sample was diluted in RPMI to 100 μM (1000 μL) and incubated at 37° C. At each time point, an aliquot (50 μL) was removed from the master sample, transferred to a 96-well plate, quenched with 4 vol MeOH, centrifuged at 4,000 g to precipitate debris, and immediately analyzed by SPE-MS/MS to quantitate β-ketoacid 11 remaining.

EpnF = EpnF (Streptomyces hygroscopicus, UniProt V5RMU9); test: Enzyme kinetic analysis by SPE-MS/MS assay; assay type: biochemical; conditions: relative to 11n
EpnF, sequence (V5RMU9 entry or part of it): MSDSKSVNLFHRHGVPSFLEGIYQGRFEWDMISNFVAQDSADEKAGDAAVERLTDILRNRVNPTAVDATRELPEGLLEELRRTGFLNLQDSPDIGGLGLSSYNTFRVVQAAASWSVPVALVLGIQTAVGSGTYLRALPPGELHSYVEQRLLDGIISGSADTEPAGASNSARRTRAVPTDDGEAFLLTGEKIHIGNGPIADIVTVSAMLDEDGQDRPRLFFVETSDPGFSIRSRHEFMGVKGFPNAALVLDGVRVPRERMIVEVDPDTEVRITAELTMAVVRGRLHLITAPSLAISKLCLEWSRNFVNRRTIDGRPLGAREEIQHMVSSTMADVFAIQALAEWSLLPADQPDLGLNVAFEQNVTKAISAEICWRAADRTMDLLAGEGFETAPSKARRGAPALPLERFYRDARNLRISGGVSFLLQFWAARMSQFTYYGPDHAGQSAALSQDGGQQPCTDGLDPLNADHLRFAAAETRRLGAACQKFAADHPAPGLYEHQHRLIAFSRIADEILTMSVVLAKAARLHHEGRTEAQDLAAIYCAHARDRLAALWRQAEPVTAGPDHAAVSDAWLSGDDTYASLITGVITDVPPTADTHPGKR
Experimental: SPE-MS/MS analyses were carried out on an Agilent RapidFire 365 High-Throughput Mass Spectrometry System with 6495 triple quadrupole mass spectrometer. Determination of initial velocity: EpnF stock at 100 μM was diluted 10-fold in EpnF Buffer to a 10 μM working solution, which was further diluted to 8 concentrations (10-0.005 μM) in EpnF Buffer (intermediate volume 1350 μL, concentrations calculated for 1500 μL theoretical final volume corresponding to addition of substrate solutions below). The 8 EpnF enzyme dilutions were aliquoted (90 μL) into the corresponding 8 tubes of PCR tube strips (12 strips, one per time point; Thermo Scientific, AB-2000). The β-ketoacid 11 (20 mM in EtOH) was diluted to 10 μM in EpnF Buffer, then 10 μL of this solution was added to each of the tubes (1 μM final concentration, 100 μL final volume) to initiate the reaction. Samples were incubated in a heated shaker at 37° C. and 225 rpm for up to 120 min, and one tube strip was removed at each time point. Each tube was quenched with 5% formic acid in EpnF Buffer (100 μL), pipetted vigorously, and flash frozen on dry ice. Samples were thawed then centrifuged to precipitate protein and transferred to a conical-bottom 96-well plate (Thermo Scientific/Nunc, 249944) for SPE-MS/MS analysis. Measurement of Km and Vmax: Using the data from the initial velocity experiments above, an appropriate EpnF enzyme concentration was selected for each β-ketoacid 11 at which the rate of conversion to the epoxyketone 12 remained linear at 10 min (0.50 μM for 11n and 0.05 μM for all other substrates). Each substrate (20 mM in EtOH) was diluted to 1 mM in EpnF Buffer, then diluted to 8 concentrations (100-0.5 μM) in EpnF Buffer (intermediate volume 1350 μL, concentrations calculated for 1500 μL theoretical volume corresponding to addition of enzyme solutions below). The 8 substrate dilutions were aliquoted (90 μL) into the corresponding 8 tubes of PCR tube strips (12 strips, one per time point; Thermo Scientific, AB-2000). The EpnF enzyme stock solution was diluted in EpnF Buffer to the appropriate concentration for each substrate, then 10 μL of this solution was added to each of the tubes (100 μL final volume) to initiate the reaction. For the 0-min time point, 5% formic acid in EpnF Buffer was added to the β-ketoacid substrate before addition of the enzyme. Samples were incubated in a heated shaker at 37° C. and 225 rpm for up to 10 min, and one tube strip was removed at each time point. Each tube was quenched by addition of 5% formic acid in EpnF Buffer (100 μL), pipetted vigorously, and flash frozen on dry ice. Samples were thawed then centrifuged to precipitate proteins and the supernatants were transferred to a conical-bottom 96-well plate (Thermo Scientific/Nunc, 249944) for SPE-MS/MS analysis. Km and Vmax values for each substrate were calculated by Michaelis-Menten analysis. To obtain a quantitative assessment of EpnF substrate specificity, we developed a kinetic assay (10 min) using SPE-MS/MS (solid-phase extraction/triple quadrupole mass spectrometry; Agilent RapidFire 365 with 6495 MS) to enable direct detection of both substrates and products.

U266 cells = test: In situ activation of β-ketoacid 11a by EpnF, cell viability, CellTitre-Glo, 48 h; assay type: cell-based; conditions: U266, 48 h
Experimental: For in situ activation of β-ketoacid 11a by EpnF, U266 cells were seeded in a 96-well plate as above, at 20,000 cells per well in […] RPMI. Recombinant EpnF (100 μM in EpnF Buffer) was diluted in RPMI to 5 μM concentration (300 μL final volume), then 10 μL of this enzyme solution was added to the plate wells to 0.5 μM EpnF final concentration. Stock solutions (20 mM) of β-ketoacid 11a and epoxyketone 12a in EtOH or DMSO, respectively, were diluted to 5% EtOH or DMSO in RPMI to provide working stocks at 1 mM. The working stocks were log-diluted to 1 mM-0.05 μM using RPMI containing 5% EtOH or 5% DMSO, respectively. Aliquots of compounds (10 μL) were added to the sample wells for final concentrations of 100-0.005 μM. Separate negative control wells were treated with 10 μL of 5% EtOH or 5% DMSO in RPMI (0.5% final concentration). The cells were incubated for 48 hr, then cell viability was measured with the CellTitre-Glo assay. Results of compound-treated wells were normalized to negative control wells.

CC(C)CCCCC(=O)N[C@@H](CO)C(=O)N[C@@H](CC(C)C)C(=O)C(C)(C)C(=O)O [Compound 11a, (4S)-4-[(2S)-3-Hydroxy-2-(6-methylheptanamido)propanamido]-2,2,6-trimethyl-3-oxoheptanoic acid]
half-life at 100 μM ([1]; RPMI medium, RPMI, 37° C.): 2.5 h | half-life ([1]; deuterated PBS, PBS, 37° C.): 4.5 h | stability / rate of decarboxylation (in words) ([1]; neat at low temperatures, buffer or media at 37° C.): fairly stable when stored neat at low temperatures | half-life ([1]; neat lyophilized powder, neat, 4° C.): > 336 h | half-life ([1]; neat lyophilized powder, neat, 25° C.): 120 h | half-life ([1]; neat lyophilized powder, neat, −20° C.): > 336 h | % remaining at last time point ([1]; neat, 4° C.): d (80%) | % remaining at last time point ([1]; neat, −20° C.): d (95%) | converted more efficiently than 11n (EpnF): ≈ 20 fold | cytotoxicity of β-ketoacid activated in situ (U266 cells; in presence of EpnF (0.5 μM)): cytotoxicity comparable to that of the corresponding isolated epoxyketone 12a | no cytotoxicity at up to (concentration) (U266 cells; prodrug alone, absence of EpnF): > 100 µM
